Test results reported in patent publication EP2698383B1, “Detection of synthetic Cannabinoids” (priority 2012, dated 2014).
Like-named read-outs stand apart in the source and are kept apart here.

Key:
Assay type in all cases: binding, sheep
[1] = system: Antibody 4.1
Method: (§1) The wells of an enhanced binding 96 well polystyrene microtiter plate were coated with IgG fraction of antiserum (Antibody 4.1 or antibody 4.2) raised to Immunogen 4 in separate host animals, diluted in 10mM Tris, pH8.5 (125µl/well). The appropriate antibody coating dilution was determined using standard ELISA checkerboard techniques. The plate was incubated overnight at 4°C, washed 4 times over 10 minutes with Tris buffered saline containing Tween 20 (TBST) and tapped dry.
(§2) Standard solutions of CP47,497 -C8 were prepared in TBST at 0, 2.5, 5, 10, 20, 40, 80 and 160ng/ml for Antibody 4.1, and at 0, 5, 10, 20, 40, 80, 160 and 320ng/ml for Antibody 4.2, and 50µl of each was added to the appropriate wells. 75µl of conjugate (Hapten 1-HRP - tracer 1 - see Figure 4) diluted in Tris buffer (pH 7.2) containing EDTA, D-mannitol, sucrose, thimerosal and BSA, was added to each of the wells. The appropriate dilution of conjugate was also determined using standard ELISA checkerboard techniques. The plate was incubated at 25°C for 1 hour. Excess unbound conjugate was removed by washing 6 times over a 10 minute period with TBST. 125µl of tetramethylbenzidine (TMB) substrate solution was added to each well of the plate that was then incubated for 20 minutes in the dark at room temperature. The reaction was terminated by addition of 125µl 0.2M H2SO4 to each well. The absorbance was then measured at 450nm using a microtiter plate reader.
(§3) In order to determine the specificity of the competitive ELISAs, standard solutions of a range of structurally similar compounds were prepared in TBST. Using the calibration curves generated and employing a single level of cross reactants (100ng/ml), these were used to determine the cross-reactivity of each immunoassay with these substances. The results of this study are presented in Table 2, as %B/B0, employing antisera raised against Immunogen 2b (C8), tracer 1 (C7) and (±)-CP-47,497 (C8 homologue) as standard.

[2] = system: Antibody 4.2
Method: as §1, §2, §3

[3] = system: antibodies raised against immunogen 2b; assay: Competitive ELISA cross-reactivity, for both antibodies; settings: cross reactants 100ng/ml; tracer 1 (C7); (±)-CP-47,497 (C8 homologue) as standard
Method: as §1, §2, §3

[4] = Cross-reactants at 100ng/ml, tracer 1 (C7), (±)-CP-47,497 (C8 homologue) as standard
[5] = standard 5 ng/ml, tracer 1 (C7)
[6] = standard 10 ng/ml, tracer 1 (C7)
[7] = standard 20 ng/ml, tracer 1 (C7)
[8] = standard 40 ng/ml, tracer 1 (C7)
[9] = standard 80 ng/ml, tracer 1 (C7)
[10] = standard 160 ng/ml, tracer 1 (C7)
[11] = standard concentration which produces 50% B/B0, tracer 1 (C7)

| Molecule | %B/B0 [1, 4] [%] | %B/B0 [2, 4] [%] | %B/B0 [3] | further results |
| --- | --- | --- | --- | --- |
| CCCCCCC(C)(C)c1ccc([C@H]2CCC[C@@H](O)C2)c(O)c1 (racemic) [(±)-CP-47,497 (C7 homologue)] | 37.14 | 48.85 | less than 50% | – |
| CCCCCCC(C)(C)c1cc(OC)c([C@@H]2C=C(CO)[C@@H]3C[C@H]2C3(C)C)c(OC)c1 [HU-308] | 98.37 | 94.81 | – | – |
| CCCCCc1cc(O)c2c(c1)OC(C)(C)[C@@H]1CCC(C)=C[C@@H]21 [Delta 9 THC] | 96.44 | 94.09 | – | – |
| CCCCCCC(C)(C)C1=CC(=O)C(C2CCCC(O)C2)=CC1=O (racemic) [(±)-CP-47,497 (C7 para quinone analogue)] | 82.66 | 89.82 | greater than 80% | – |
| (-)-11-nor-9-Carboxy-delta9-THC | – | – | – | %B/B0 [1]: 95.23%; %B/B0 [2]: 94.38% |
| CCCCCCCC(C)(C)c1ccc(C2CCCC(O)C2)c(O)c1 (racemic) [(±)-CP-47,497 (C8 homologue)] | 36.52 | 49.65 | less than 50% | %B/B0 ([1]; standard 2.5 ng/ml, tracer 1 (C7)): 82%; %B/B0 [1, 5]: 72%; %B/B0 [1, 6]: 60%; %B/B0 [1, 7]: 51%; %B/B0 [1, 8]: 43%; %B/B0 [1, 9]: 38%; %B/B0 [1, 10]: 34%; IC50 [1, 11]: 0.020922 µg/mL; %B/B0 [2, 5]: 88%; %B/B0 [2, 6]: 82%; %B/B0 [2, 7]: 72%; %B/B0 [2, 8]: 63%; %B/B0 [2, 9]: 52%; %B/B0 [2, 10]: 44%; %B/B0 ([2]; standard 320 ng/ml, tracer 1 (C7)): 37%; IC50 [2, 11]: 0.095992 µg/mL |
| CCCCCCC(C)(C)c1cc(O)c2c(c1)OC(C)(C)[C@H]1CC=C(CO)C[C@H]21 [HU-211 (Dexanabinol), Dexanabinol] | 96.76 | 95.84 | greater than 80% | – |
| (-)-CP 55,940 | – | – | greater than 80% | %B/B0 [1]: 91.26%; %B/B0 [2]: 97.23% |
| (+)-CP 55,940 | – | – | greater than 80% | %B/B0 [1]: 95.98%; %B/B0 [2]: 96.91% |
| CCCCCCC(C)(C)c1ccc([C@@H]2C[C@H](O)CC[C@H]2CCCO)c(O)c1 (racemic) [(+-)-CP 55,940] | 93.65 | 97.34 | greater than 80% | – |
| CCCCCCC(C)(C)c1cc(O)c2c(c1)OC(C)(C)[C@@H]1CC=C(CO)C[C@@H]21 [HU-210] | 96.01 | 92.94 | greater than 80% | – |
